Test results: patent US5994365A, “Substituted diazaanthracene compounds having pharmaceutical utility” (Diazans Limited, priority 1998, dated 1999)
≈ marks a conversion by molar mass, not a printed value. Where two headings read alike, the source gives them in different places.

How the values were obtained:
S. aureus = settings: taken from Antibiotics in Laboratory Medicine; cited from earlier work
S. aureus ATCC 25923 [1] = test: Microbroth dilution assay of antimicrobial susceptibility (MIC); format: cell-based, Staphylococcus aureus; settings: microdilution, CAMHB, 37° C.
Description: It is described below, using E. coli ATCC® 25922, S. aureus ATCC® 25923, and P. aeruginosa ATCC® 27853. Prepare 0.0128 g DAA in 10 mL dH2 O (or 95% EtOH, methanol or DMSO if H2 O insoluble)=1280 μg/mL (stock solution). Dilute DAA stock solution 1:10 with CAMHB (Cation-Adjusted Mueller Hinton Broth): 0.5 mL DAA stock solution+4.5 mL CAMHB=128 μg/mL (DAA working solution). Pipette 100 μl of sterile CAMHB per well into columns 2-12 of rows A-G using Eppendorf repeater pipette. Pipette 100 μl per well of sterile-filtered DAA working solution into columns 1 and 2 of rows A, C, E, G using Jensen electric pipette. Mix and transfer 100 μl from column 2 to 3 of rows A, C, E, G using Jensen pipette. Repeat to column 12 then discard 100 μl from column 12. Rows B, D and F are positive growth control lanes for each organism and contain only CAMHB and the organism--no DAA. Row H is the media additive control lane, if necessary (e.g. MeOH, EtOH, DMSO etc.). The concentration of the media additive is obtained by doing a 1:10 dilution of the additive with CAMHB (0.5 mL additive+4.5 mL CAMHB). Row G is considered to be "negative growth control" and is loaded with only CAMHB and the DAA. Inoculate 0.5 mL TSB (Trypticase Soy Broth) tubes with 3 single colonies each of E. coli, S. aureus, and P. Aeruginosa from TSA plates using sterile needle. Incubate @ 37° C. for 4-6 hr. Measure out 100 mL CAMHB using the sterile 100 mL volumetric flask. Pour the excess into a sterile reagent reservoir. Pipette 0.5 mL and discard, leaving 99.5 mL in each of the 3-Erlenmeyer flasks. Set aside. Use the excess CAMHB for the 1:10 dilution of inoculum: 0.5 mL inoculum+4.5 mL CAMHB. Perform a 1:200 dilution of inoculum: 0.5 mL of 1:10 diluted inoculum+99.5 mL CAMHB from previous step. Pipette 100 μl (using Eppendorf repeater pipette) E. coli into each well in columns 1-12 of rows A and B and columns 1-4 of row H (if media additive control lane necessary). Pipette 100 μl P. aeruginosa into each well in columns 1-12 of rows C and D and columns 5-8 of row H (if media additive control lane is necessary). Pipette 100 μl S. aureus into each well in columns 1-12 of rows E and F and columns 9-12 of row H (if media additive control lane is necessary). Incubate microtiter plates @ 37° C. for 18 hrs. The lowest concentration of antimicrobial agent that results in significant inhibition of visible growth represents the MIC (Minimal Inhibitory Concentration).

C. albicans ATCC 90028 = test: In vitro antifungal susceptibility assay adapted from NCCLS (MIC); format: cell-based, Candida albicans
Description: (§1) Compounds of the invention also display antifungal activities. […] Using C. albicans ATCC® 90028, C. neoformans ATCC® 90112 and T. glabrata ATCC® 90030, the protocol is performed as follows:
(§2) Prepare 0.0128 g DAA in 10 mL dH2 O (or other if H2 O insoluble)=1280 μg/mL (stock solution). Dilute DAA stock solution 1:10 with RPMI-1640: 0.5 mL DAA stock solution+4.5 mL RPMI-1640=128 μg/mL (DAA working solution).
(§3) Inoculate rows A-H, columns 2-12 with 100 μl of RPMI-1640 using Eppendorf repeater pipette. Inoculate rows A-C columns 1 and 2 with 100 μl of 1st antibiotic (i.e. DAA-1) using electronic pipette. Inoculate rows E-G columns 1 and 2 with 100 μl of 2nd antibiotic (i.e. DAA-2) using electronic pipette. […] Plate is now ready for fungal inocula, which involves pipetting 100 μl of the inocula into all wells in rows A-C columns 1-12 and rows E-G columns 1-12. […]
(§4) Five colonies greater than 1 mm in diameter are suspended in a spectrophotometer cuvette containing 5 mL of sterile, 0.85% saline (colonies are obtained from 24 hrs. old Candida and Torulopsis cultures, while Cryptococcus colonies are chosen from 48 hrs. old cultures). Spectrophotometer is set to read % transmission at a wavelength of 530 nm, and is standardized using two cuvettes. […] Fungal inoculum is now prepared and ready to be introduced to microplates. […]

[2] = tested on: Escherichia coli ATCC 25922; test: Macrobroth dilution testing for antimicrobial activity (MIC); format: cell-based; settings: ATCC25922, 18 h, macrodilution, read-out: Minimum Inhibitory Concentration
Description: (§5) A working antimicrobial solution was prepared by diluting the test compound in Mueller Hinton Broth (MHB) to the highest final concentration desired. The test was performed in 13×100 mm test tubes. Two mL of the working solution of test compound were added to test tube 1 of the dilution series. To each remaining tube, 1.0 mL of MHB was added. A sterile pipette was used to transfer 1.0 mL from tube 1 to tube 2. After thorough mixing 1.0 mL was transferred (with a separate pipette for this and each succeeding transfer) to tube 3. This process was continued to the next to last tube from which 1.0 mL was removed and discarded. The last tube received no antimicrobial agent and served as a growth control. The inoculum was prepared and adjusted to contain […] by adjusting the turbidity of a broth culture to match to 0.5 McFarland standard. It was then further diluted 1:200 in broth. One mL of the adjusted inoculum was added to each test tube. The final concentrations of antimicrobial agents in this test were half those of the initial dilution series because of the addition of an equal volume of inoculum in broth. Tubes were incubated at 35° C. for 18 hours. […] A very faint haziness or a small button is usually disregarded.

[3] = tested on: Staphlococcus aureus ATCC 25923; test: as above; format: cell-based; settings: Staphylococcus aureus, ATCC25923, 18 h, macrodilution, read-out: Minimum Inhibitory Concentration
Description: as §5

[4] = tested on: Pseudomonas aeruginosa ATCC 27853; test: as above; format: cell-based; settings: ATCC27853, 18 h, macrodilution, read-out: Minimum Inhibitory Concentration
Description: as §5

ZR-75-1 = test: Antineoplastic activity, fluorescence based live-cell/dead cell ratio; settings: Homo sapiens, ZR-75-1, ZR-75-1
Description: (§6) Values of IC50 (inhibitory concentration 50%) were calculated from the relative percent transmitted light as detected on a fluorescence 96 well plate reader.

ASPC-1 = test: as above; settings: Homo sapiens, ASPC1, ASPC-1
Description: as §6

41-SK = test: as above; parameters: species or system human
Description: as §6

Hymenolepis nata = settings: U.S. Pat. No. 3,862,945; cited from earlier work
E. coli ATCC 25922 [5] = test: Microbroth dilution assay of antimicrobial susceptibility (MIC); format: cell-based; settings: Escherichia coli, ATCC25922; microdilution, CAMHB, 37° C., 18 hrs
Description: It is described below, using E. coli ATCC® 25922, S. aureus ATCC® 25923, and P. aeruginosa ATCC® 27853. Prepare 0.0128 g DAA in 10 mL dH2 O (or 95% EtOH, methanol or DMSO if H2 O insoluble)=1280 μg/mL (stock solution). Dilute DAA stock solution 1:10 with CAMHB (Cation-Adjusted Mueller Hinton Broth): 0.5 mL DAA stock solution+4.5 mL CAMHB=128 μg/mL (DAA working solution). Pipette 100 μl of sterile CAMHB per well into columns 2-12 of rows A-G using Eppendorf repeater pipette. Pipette 100 μl per well of sterile-filtered DAA working solution into columns 1 and 2 of rows A, C, E, G using Jensen electric pipette. Mix and transfer 100 μl from column 2 to 3 of rows A, C, E, G using Jensen pipette. Repeat to column 12 then discard 100 μl from column 12. Rows B, D and F are positive growth control lanes for each organism and contain only CAMHB and the organism--no DAA. Row H is the media additive control lane, if necessary (e.g. MeOH, EtOH, DMSO etc.). The concentration of the media additive is obtained by doing a 1:10 dilution of the additive with CAMHB (0.5 mL additive+4.5 mL CAMHB). Row G is considered to be "negative growth control" and is loaded with only CAMHB and the DAA. Inoculate 0.5 mL TSB (Trypticase Soy Broth) tubes with 3 single colonies each of E. coli, S. aureus, and P. Aeruginosa from TSA plates using sterile needle. Incubate @ 37° C. for 4-6 hr. […]

T. glabrata ATCC 90030 = test: In vitro antifungal susceptibility assay adapted from NCCLS (MIC); format: cell-based, Torulopsis glabrata; settings: Nakaseomyces glabratus, ATCC90030; RPMI-1640; read-out: MIC
Description: as §1, §2, §3, §4

C. neoformans ATCC 90112 = test: as above; format: cell-based, Cryptococcus neoformans; settings: Cryptococcus neoformans, ATCC90112; RPMI-1640; read-out: MIC
Description: as §1, §2, §3, §4

S. aureus ATCC 25923 [6] = settings: control limits, Gentamicin 10 mcg disk; cited from earlier work
P. aeruginosa ATCC 27853 = settings: control limits, Gentamicin 10 mcg disk; cited from earlier work
E. coli ATCC 25922 [7] = settings: control limits, Gentamicin 10 mcg disk; cited from earlier work
[8] = Staphylococcus aureus, ATCC25923, 18 h, read-out: MIC

## O=C(O)c1cn(C2CC2)c2cc(N3CCNCC3)c(F)cc2c1=O [Ciprofloxacin]
S. aureus
  MIC: 0.25 to 1 µg/mL

## CC1(C)S[C@@H]2[C@H](NC(=O)Cc3ccccc3)C(=O)N2[C@H]1C(=O)O [Penicillin]
S. aureus
  MIC: 8 to 16 µg/mL

## Cc1cnc2cc3cncc(C)c3cc2c1 [Derivative No. 1]
S. aureus ATCC 25923 [1]; 18 hrs, listed as 1,8-DAA-3,6-(Me)2.HCl
  MIC: 32 µg/mL (≈ 154 µM)
C. albicans ATCC 90028; RPMI-1640, listed as 1,8-DAA-3,6-(Me)2.HCl
  MIC: 64 µg/mL (≈ 307 µM)
[2]
  MIC: 64 µg/mL (≈ 307 µM)
[3]
  MIC: 4 µg/mL (≈ 19.2 µM)
[4]
  MIC: > 64 µg/mL
ZR-75-1
  IC50: 47.3 µg/mL
ASPC-1
  IC50: 58 µg/mL
41-SK; listed as 1,8-DAA(Me)2 · HCl
  IC50: 139.2 µg/mL

## CN(C)C1C(=O)C(C(N)=O)=C(O)C2(O)C(=O)C3=C(O)c4c(O)cccc4C(C)(O)C3CC12 (centres unmarked) [Tetracycline]
S. aureus
  MIC: 0.5 to 32 µg/mL

## CC1NCc2cc3c(cc2C1c1ccccc1)CNC(C)C3c1ccccc1.Cl.Cl (centres unmarked) [1,2,3,4,6,7,8,9-octahydro-3,8-dimethyl-4,9-diphenyl-pyrido[3,4-g]isoquinoline dihydrochloride]
Hymenolepis nata
  anti-parasitic activity: has an anti-parasitic activity

## Cc1cc2cc3c(C)c[n+]([O-])cc3cc2[n+]([O-])c1 [Derivative No. 7]
S. aureus ATCC 25923 [1]; [8]
  MIC: 0.125 µg/mL (≈ 0.52 µM)
E. coli ATCC 25922 [5]
  MIC: 4 µg/mL (≈ 16.6 µM)
ZR-75-1
  IC50: 1.9 µg/mL
ASPC-1
  IC50: 9.3 µg/mL
41-SK; Homo sapiens, read-out: IC50
  IC50: 11.3 µg/mL

## Cc1cnc2c(c1)C(=O)c1c(C)cncc1C2=O [Example 14]
S. aureus ATCC 25923 [1]; [8]
  MIC: 1 µg/mL (≈ 4.2 µM)
C. albicans ATCC 90028; Candida albicans, ATCC90028, RPMI-1640, read-out: MIC
  MIC: 8 µg/mL (≈ 33.6 µM)
T. glabrata ATCC 90030
  MIC: 4 µg/mL (≈ 16.8 µM)
C. neoformans ATCC 90112
  MIC: 4 µg/mL (≈ 16.8 µM)

## Gentamicin
S. aureus
  MIC: 0.25 to 16 µg/mL
S. aureus ATCC 25923 [6]
  control zone diameter: 19-27 mm
P. aeruginosa ATCC 27853
  control zone diameter: 16-21 mm
E. coli ATCC 25922 [7]
  control zone diameter: 19-26 mm

## Cc1cncc2cc3c(C)cncc3cc12 [Example 17]
S. aureus ATCC 25923 [1]; [8]
  MIC: 64 µg/mL (≈ 307 µM)

## Cc1cc2cc3c(C)c[n+](C)cc3cc2[n+](C)c1 [Example 8.4, N,N'-dimethyl-1,8-DAA-3,6-(Me)2 tetrafluoroborate hemihydrate]
ZR-75-1
  IC50: 38.3 µg/mL
ASPC-1
  IC50: 62.5 µg/mL
41-SK; Homo sapiens, read-out: IC50
  IC50: 35.9 µg/mL
